Common to all, as to assay: NCI-60 cell line screen, 48 h
For assay [1], the system named is MALME-3M melanoma.
Assay [2] deals with SF-539 CNS.
Assay [3] deals with LOX IMVI melanoma.
Assay [4] relates to EKVX NSCLC.
For assay [5], the system named is SK-MEL-5 melanoma.
Assay [6] concerns OVCAR-8 ovarian.
The subject of assay [7] is NCI/ADR-RES ovarian.
Assay [8] relates to SNB-19 CNS.
The subject of assay [9] is SNB-75 CNS.
For assay [10], the system named is MCF7 breast.

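Where inhibition never reached the appropriate level, the endpoint shown equals the highest concentration tested. Otherwise, values were interpolated linearly from a five-concentration, 48-hour dose response in 96-well plates. TGI: concentration producing complete growth inhibition.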

In the case of `CN(C)CCNC(=O)c1cccc2nc3c(C(=O)NCCN(C)C)cccc3nc12`, the TGI amounted to 3.59 µM in assay [1]; 6.64 µM in [2]; 1.49 µM in assay [3]; 3.76 µM in assay [4]; 3.02 µM in [5]; 4.67 µM in assay [6]. In addition, the TGI in [7] was more than 58.1 µM; in assay [8], 21.6 µM; in assay [9], 8.12 µM.

In the case of `O=C(CN1CCCCC1)Nc1ccc2c(c1)C1Oc3ccccc3CC1CO2` (stereo not drawn), the TGI is 32.2 µM in assay [1]; 36 µM in assay [2]; 30 µM in [3]; 53.9 µM in assay [4]; 26.7 µM in assay [5]; more than 100 µM in assay [6]. For the same molecule, the figures for the TGI in [7] and in assay [10] were 88.3 µM and 44.1 µM, respectively.

For `CCOC(=O)[C@@]1(C)CC(O)C(=O)N1C` (stereo partly drawn), the TGI in assay [1], in assay [2], in [3], in [4], in [5] and in assay [6] was more than 100 µM in each case. For the same molecule, the TGI in assay [7], in assay [10] and in assay [8] was more than 100 µM throughout.

`COc1cc(C2C3=C(CCCC3=O)N(c3ccc(C)cc3)C3=C2C(=O)CCC3)c([N+](=O)[O-])cc1OC`: the TGI in assay [2], in assay [3], in assay [4], in assay [5], in [7] and in [10] was more than 100 µM each time. Besides, the TGI in assay [8] and in assay [9] was more than 100 µM in each case.

For `Cc1ccc(S(=O)(=O)N/N=C2\CC3CC4CCC2C4C3)cc1` (stereo not drawn), the TGI in assay [1], in [2], in assay [3], in assay [4], in assay [5] and in assay [6] was more than 100 µM each time. The TGI in [10] and in assay [9] was more than 100 µM in each case.

Regarding `CC(=O)O[C@H]1C[C@@H](OC(C)=O)[C@@](C)(O)[C@@H]2[C@@H](OC(C)=O)[C@@]3(O)[C@H](/C=C(/CO)[C@H]4O[C@H]4[C@@H](OC(C)=O)[C@@]12C)OC(=O)[C@@H]3C`, the TGI in [1], in assay [3], in assay [4], in assay [5], in [6] and in assay [7] was more than 25 µM throughout. Further, the TGI in assay [8] was more than 25 µM; in assay [9], 17.5 µM.

`COC(=O)CNC(=O)CCC(C)[C@H]1CCC2C3C(C[C@H](OC(C)=O)[C@@]21C)[C@@]1(C)CCC2(C[C@H]1C[C@H]3OC(C)=O)OOC1(CC[C@]3(C)C4C[C@H](OC(C)=O)[C@@]5(C)C(CC[C@@H]5C(C)CCC(=O)NCC(=O)OC)C4[C@H](OC(C)=O)C[C@@H]3C1)OO2` (stereo partly drawn): the TGI in [1] is 1.93 µM; in [2] it was 1.8 µM; in assay [4], 1.78 µM; in [7], more than 50 µM; in assay [10], more than 50 µM; in assay [8], more than 50 µM. This molecule showed a TGI in assay [9] of 5.17 µM.

With `CCCOP(=O)(OCCC)OC(C(F)(F)F)C(F)(F)F`, the TGI in [1], in assay [2], in assay [3], in [4], in assay [10] and in assay [8] was more than 100 µM each time. For the same molecule, the TGI in [9] was more than 100 µM.

With `COC(=O)C1CCC(=O)N1C(c1cc(OC)c(OC)c(OC)c1)c1cccc2ccccc12` (stereo not drawn), the TGI in [2], in assay [3], in assay [4], in assay [6], in assay [7] and in [10] was more than 100 µM throughout. Also, the TGI in [8] and in assay [9] was more than 100 µM in each case.

For `N#Cc1cc(Sc2ccc(N)c(C#N)c2)ccc1N`, the TGI turned out to be 36.4 µM in assay [1]; 27.9 µM in [2]; 51.7 µM in assay [3]; 50.5 µM in [4]; 39 µM in assay [5]; 55.2 µM in assay [6]. Further, the TGI in assay [7] was 35.3 µM; in [10], more than 100 µM; in assay [8], more than 100 µM.

Regarding `O=C1CSC(c2ccc([N+](=O)[O-])cc2)N1c1ccc(-c2ccc(-n3c(-c4ccccc4)nc4ccccc4c3=O)cc2)cc1` (stereo not drawn), the TGI is more than 100 µM in assay [1]; more than 100 µM in [2]; more than 100 µM in assay [3]; more than 100 µM in assay [4]; 62 µM in assay [5]; more than 100 µM in assay [6]. Also, the TGI in assay [7], in assay [10] and in assay [8] was more than 100 µM throughout.

As for `CCN(CC)CC1CN=C(N)O1` (stereo not drawn), the TGI in assay [2], in [3], in [4], in [5], in [6] and in assay [7] was more than 100 µM throughout. For the same molecule, the TGI in assay [10], in assay [8] and in assay [9] was more than 100 µM each time.

As to `O=[N+]([O-])/C=C(\CS(=O)(=O)c1ccccc1)c1ccc2c(c1)OCO2`, the TGI in [2] is more than 100 µM; in [3] it was more than 100 µM; in assay [4] it was more than 100 µM; in assay [5], more than 100 µM; in assay [6], more than 100 µM; in [7], 49.2 µM. Further, the TGI in assay [10] and in assay [9] was more than 100 µM each time.

With `COC(=O)C1=C(O)CCCC(C2CCCCC(=O)C2C(=O)OC)=C1` (stereo not drawn), the TGI in [2], in [3], in assay [4], in [5], in [6] and in assay [7] was more than 100 µM each time. The TGI was 70.4 µM in [10], more than 100 µM in assay [8] and more than 100 µM in [9].

With `O=c1[nH]nc(Nc2ccccc2)c2nnn(C3CCCCC3)c12`, the TGI in assay [1], in assay [3], in assay [4], in [5], in [6] and in assay [7] was more than 100 µM throughout. The TGI in [10] and in [8] was more than 100 µM in each case.

On to `COC(=O)C1=C(C(=O)OC)C(N(C)C)C(C(=O)OC)=C(C(=O)OC)S1`, for which the TGI in assay [3], in [6], in assay [7], in [10], in assay [8] and in assay [9] was more than 100 µM each time.

For `O=C(Nc1ccccc1Cl)c1ccc([N+](=O)[O-])cc1`, the TGI in assay [1], in assay [2], in assay [3], in assay [4], in [5] and in [6] was more than 100 µM in each case. The TGI in assay [8] was more than 100 µM; in assay [9] it was 47.5 µM.

As to `Cc1cc(Nc2ccc(NS(C)(=O)=O)cc2)c2c(ccc3nccc32)[nH]1`, the TGI in assay [1] is 27.8 µM; in [3], 48.4 µM; in [4] it was more than 100 µM; in [5], 29.1 µM; in assay [6], more than 100 µM; in assay [7], more than 100 µM. Further, the TGI was found to be 36.2 µM in assay [10] and 48.8 µM in assay [8].

Regarding `COc1c(Br)cc2ccccc2c1-c1c(OC)c(Br)cc2ccccc12`, the TGI in assay [2], in assay [3], in [4], in assay [5], in [6] and in assay [7] was more than 100 µM each time. Also, the TGI in assay [10], in assay [8] and in [9] was more than 100 µM in each case.

With `Cc1c(Cl)cccc1N=NC(=O)NNc1cccc(Cl)c1C`, the TGI in assay [1] stood at 30.8 µM; in assay [3], 35.7 µM; in [5] it was 28.6 µM; in assay [6] it was 26.6 µM; in [8] it was 41.9 µM; in [9] it was 32.5 µM.

As for `O=C(C/C(=N/O)C(F)(F)F)c1cccs1`, the TGI in assay [2], in assay [3], in assay [4], in [5], in [6] and in [7] was more than 100 µM throughout. Moreover, the TGI in [10], in assay [8] and in [9] was more than 100 µM throughout.

With `O=C(O)/C(=C\c1ccc(O)cc1)c1cccc2ccccc12`, the TGI in [1], in assay [3], in assay [4], in assay [5], in assay [6] and in assay [7] was more than 100 µM in each case. In addition, the TGI in [8] and in [9] was more than 100 µM in each case.

As to `Nn1c(=O)[nH]c2ncn(Cc3ccccc3)c2c1=O`, the TGI in assay [1], in assay [2], in assay [4], in assay [5], in assay [6] and in assay [7] was more than 100 µM each time. Moreover, the TGI in assay [10], in assay [8] and in assay [9] was more than 100 µM in each case.

Take `O=C1CC(=O)NC(=NN2C(=O)CSC2C(=O)c2ccco2)N1` (stereo not drawn): the TGI in [1], in assay [2], in assay [5], in assay [6], in [7] and in [10] was more than 100 µM in each case. This molecule also displayed a TGI in [9] of more than 100 µM.

As for `CCOC(=O)CCN1C(=O)C(=O)N(c2ccc(OC)cc2)C1=S`, the TGI in assay [1], in [2], in assay [3], in assay [4], in [5] and in [6] was more than 100 µM in each case. The TGI in assay [7], in assay [8] and in assay [9] was more than 100 µM in each case.

Consider `C=CCOC(=O)N1c2ccc(O)cc2[C@@]23O[C@@]24[C@@H]1C#C/C=C\C#C[C@]3(O)C(OC)(OC)C[C@@H]4C`, for which the TGI in [1] was 82 µM; in [2], 40.6 µM; in [4], more than 100 µM; in assay [5], 27.4 µM; in [6], 85.5 µM; in assay [7], more than 100 µM. For the same molecule, the results for the TGI in assay [10], in assay [8] and in [9] were 98.2 µM, more than 100 µM and 45.9 µM, respectively.

On to `Cc1cc2c(cc1C)C(=O)C1(C2)Cc2cc3c(cc2C1=O)CCC3` (stereo not drawn), for which the TGI in [1] was more than 100 µM; in [2] it was 91.9 µM; in assay [4] it was more than 100 µM; in assay [5], more than 100 µM; in assay [6] it was more than 100 µM; in [7], more than 100 µM. In addition, the TGI in assay [10], in [8] and in assay [9] was more than 100 µM throughout.

In the case of `C=CCOC(OCC=C)/C(Br)=C/C`, the TGI was 39.5 µM in assay [3]; more than 100 µM in [4]; more than 100 µM in assay [5]; 37 µM in [6]; 89.2 µM in assay [7]; more than 100 µM in [10]. Moreover, the TGI in assay [8] and in [9] was more than 100 µM each time.

For the molecule `COC(=O)c1c2c(cc3c1CC1(Cc4cc5c(c(C(C)=O)c4C1)CCCC5)C3)CCCC2` (stereo not drawn), the TGI in [1], in assay [2], in assay [3], in assay [4], in assay [5] and in [6] was more than 100 µM throughout. The TGI in assay [7] and in assay [10] was more than 100 µM in each case.

Consider `C=CC(C)C1(CCCOCc2ccccc2)C(=S)N2CCC3(CC24CCCC14)OCCO3` (stereo not drawn), for which the TGI was more than 100 µM in [1]; more than 100 µM in [3]; more than 100 µM in assay [4]; more than 100 µM in [6]; more than 100 µM in [8]; 5.82 µM in [9].
